Laboratory results as given in the supplement of paper PMC10307832.

Columns and labels:
Assay in all cases: relative viability (nuclei count vs DMSO), 5 days (fraction); higher = more cells survive
[1] = compound: COC1=CC=C(C=C1)COC2=C(C=C(C=C2)CC3=CN=C(N=C3N)N)OC [GW-2580] + CS(=O)(=O)N1CCN(Cc2cc3nc(-c4cccc5[nH]ncc45)nc(N4CCOCC4)c3s2)CC1 [Pictilisib] (partner 1 µM)
Method in brief: (§1)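 Lung cancer cell lines, seeded in 1536-well plates, were treated the following day by pin tool with a single drug or with five library-drug doses (not always all listed) in √10 steps on top of a fixed anchor-drug dose. Cells were fixed and nuclei stained in one step after 5 days, and nuclei were counted. Relative viability is the nuclei count for treated wells divided by that for vehicle wells, reported as medians of duplicate plates.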

[2] = compound: Cc1cnc(Nc2ccc(OCCN3CCCC3)cc2)nc1Nc1cccc(S(=O)(=O)NC(C)(C)C)c1 [Fedratinib] + Cc1nc(NC(=O)N2CCC[C@H]2C(N)=O)sc1-c1ccnc(C(C)(C)C(F)(F)F)c1 [Alpelisib] (partner 2 µM)
Method in brief: as §1

[3] = compound: COC1=CC=C(C=C1)COC2=C(C=C(C=C2)CC3=CN=C(N=C3N)N)OC [GW-2580] + CC1(C)CCC(c2ccc(Cl)cc2)=C(CN2CCN(c3ccc(C(=O)NS(=O)(=O)c4ccc(N[C@H](CCN5CCOCC5)CSc5ccccc5)c(S(=O)(=O)C(F)(F)F)c4)cc3)CC2)C1 [Navitoclax] (partner 0.5 µM)
Method in brief: as §1

[4] = compound: Cc1cnc(Nc2ccc(OCCN3CCCC3)cc2)nc1Nc1cccc(S(=O)(=O)NC(C)(C)C)c1 [Fedratinib] + CCNC(=O)c1noc(-c2cc(C(C)C)c(O)cc2O)c1-c1ccc(CN2CCOCC2)cc1 [Luminespib] (partner 0.01 µM)
Method in brief: as §1

[5] = compound: COC1=CC=C(C=C1)COC2=C(C=C(C=C2)CC3=CN=C(N=C3N)N)OC [GW-2580] + N=C(N)NC(=N)NCCc1ccccc1 [Phenformin] (partner 250 µM)
Method in brief: as §1

Cell Line | relative viability ([1]; first compound 0.08 µM) | relative viability ([1]; first compound 0.8 µM) | relative viability ([1]; first compound 2.53 µM) | relative viability ([1]; first compound 8 µM) | relative viability ([2]; first compound 0.1 µM) | relative viability ([2]; first compound 0.3162 µM) | relative viability ([2]; first compound 1 µM) | relative viability ([3]; first compound 0.08 µM) | relative viability ([3]; first compound 0.8 µM) | relative viability ([3]; first compound 2.53 µM) | relative viability ([3]; first compound 8 µM) | relative viability ([4]; first compound 0.1 µM) | relative viability ([4]; first compound 0.3162 µM) | relative viability ([4]; first compound 1 µM) | relative viability ([5]; first compound 0.08 µM) | relative viability ([5]; first compound 0.8 µM) | relative viability ([5]; first compound 2.53 µM) | relative viability ([5]; first compound 8 µM)
201T | 0.601 | 0.701 | 0.67 | 0.68 | 1.04 | 0.974 | 0.99 | 1.24 | 1.25 | 1.23 | 1.2 | 1 | 1.06 | 1.02 | 0.466 | 0.418 | 0.461 | 0.433
A549 | 0.575 | 0.491 | 0.486 | 0.303 | 0.74 | 0.691 | 0.622 | 1.38 | 1.25 | 1.12 | 0.918 |  |  |  | 0.19 | 0.193 | 0.105 | 0.0849
A-427 | 0.73 | 0.661 | 0.678 | 0.655 | 1.07 | 0.949 | 0.959 | 1.02 | 1.1 | 0.838 | 0.856 | 0.901 | 0.884 | 0.921 | 0.407 | 0.258 | 0.303 | 0.269
ABC-1 | 0.761 | 0.564 | 0.571 | 0.679 | 0.979 | 0.994 | 1.12 |  |  |  |  | 0.415 | 0.655 | 0.607 | 0.236 | 0.226 | 0.234 | 0.224
BEN | 0.612 | 0.602 | 0.451 | 0.515 | 0.83 | 0.972 | 0.891 | 0.0663 | 0.486 | 0.0634 | 0.0526 | 0.312 | 0.248 | 0.263 | 0.266 | 0.33 | 0.255 | 0.317
CAL-12T | 0.45 | 0.739 | 0.341 | 0.513 | 1.13 | 1.16 | 1.06 | 1.27 |  | 1.22 | 1.34 | 0.175 | 0.617 | 0.361 | 0.624 | 0.613 | 0.609 | 0.514
COR-L23 | 0.834 | 0.969 | 0.695 | 0.888 | 0.752 | 0.74 | 0.778 | 1.32 | 1.17 | 1.14 | 1.11 | 0.816 | 0.671 | 0.602 | 0.458 | 0.53 | 0.478 | 0.463
COR-L 105 | 0.36 | 0.404 | 0.353 | 0.375 | 1.04 | 1.06 | 0.793 | 0.813 | 0.814 | 0.72 | 0.751 | 0.753 | 0.743 | 0.78 | 0.529 | 0.478 | 0.508 | 0.491
Calu-6 | 0.99 | 1.08 | 0.908 | 1.05 | 0.915 | 0.906 | 0.801 | 0.932 | 0.868 | 0.782 | 0.877 |  |  |  |  |  |  | 
ChaGo-K-1 | 0.735 | 1.15 | 0.526 | 0.655 |  |  |  | 1.04 | 1.34 | 0.926 | 1.01 | 0.61 | 0.548 | 0.561 | 0.594 | 0.476 | 0.454 | 0.514
EBC-1 | 0.309 | 0.374 | 0.323 | 0.296 | 0.743 | 0.808 | 0.592 | 0.418 | 0.37 | 0.369 | 0.37 |  |  |  |  |  |  | 
EKVX | 0.395 | 0.448 | 0.395 | 0.5 | 0.898 | 1.04 | 0.931 | 0.977 | 1.03 | 0.732 | 0.925 | 0.888 | 0.866 | 0.934 | 0.244 | 0.264 | 0.212 | 0.233
EMC-BAC-2 | 0.577 | 0.618 | 0.452 | 0.519 | 0.85 | 0.754 | 0.711 | 1.18 | 1.39 | 1.07 | 1.2 | 1.27 | 1.12 | 1.18 | 0.558 | 0.501 | 0.416 | 0.493
EPLC-272H | 0.254 | 0.36 | 0.267 | 0.262 | 1.05 | 0.915 | 0.914 | 1.18 | 1.08 | 1.11 | 1.11 | 0.208 | 0.167 | 0.205 | 0.272 | 0.339 |  | 0.354
H3255 | 0.534 | 0.471 | 0.419 | 0.464 | 0.458 | 0.715 | 0.652 | 0.5 | 0.633 | 0.4 | 0.452 | 0.913 | 0.932 | 0.59 | 0.277 | 0.848 | 0.702 | 0.359
HARA | 0.459 | 0.513 | 0.344 | 0.405 | 0.84 | 0.793 | 0.743 | 1.15 | 1.18 | 1.28 | 0.896 | 0.103 | 0.766 | 0.539 | 0.461 | 0.524 | 0.328 | 0.304
HCC-15 | 0.79 | 0.824 | 0.653 | 0.677 | 0.746 | 0.793 | 0.758 | 0.751 | 0.79 | 0.656 | 0.712 | 0.114 | 0.247 | 0.381 | 0.537 | 0.486 | 0.426 | 0.515
HCC-44 | 0.688 | 0.717 | 0.582 | 0.619 | 0.759 | 0.771 | 0.801 | 1.09 | 1.03 | 0.97 | 0.897 | 1.01 | 0.974 | 0.972 | 0.181 | 0.153 | 0.183 | 0.253
HCC-78 | 0.242 | 0.245 | 0.171 | 0.227 | 0.324 |  | 0.34 | 0.879 | 1.07 | 0.631 | 0.801 |  |  |  | 0.743 | 0.655 | 0.543 | 0.583
